Assay results taken from US11891400B2, “Pyrazolo[1,5-a]pyrimidine-3-carboxamide derivatives useful in the treatment of psoriasis and systemic lupus erythematosus” (Eli Lilly and Company, priority 2018, dated 2024).

Assays:
[1] = system: IFNα signaling through pSTAT1 in TF1 cells; assay: Inhibition of IFNα signaling through pSTAT1 in TF1 cells; type: cell-based; conditions: Homo sapiens, TF-1, 20 min, 10 ng/ml IFNα2 for 20 minutes, AlphaLISA, geometric mean (SEM), read-out: IC50, inhibition of p-Stat1 (Tyr701)
Description: TF1 cells (ATCC, CL-2003) are grown in RPMI 1640 (GIBCO) supplemented with 10% dialyzed FBS, 0.1 mg/ml Ampicillin and 2 ng/mL granulocyte macrophage colony stimulating factor. TF1 cells (100 K per well) are seeded in a 96-well poly-D-lysine coated plates in serum-free DMEM and incubated overnight at 37° C. under 5% CO2. Example 1 is serially diluted in DMSO, added to the cells, and incubated at 37° C. for 1 hr. Cells are then stimulated with 10 ng/ml IFNα2 at 37° C. for 20 minutes. After removing the medium, the cells are lysed in buffer containing Halt protease and phosphatase inhibitor cocktail (Thermo Scientific #78441) at room temperature for 30 minutes. The amount of p-Stat1 (Tyr701) is quantified as light emission at 615 nm using the AlphaLISA SureFire Ultra p-Stat1 (Tyr701) assay kit (Perkin Elmer #ALSU-PST1-A50K) following the vendor's recommended protocol. Percent inhibition at each inhibitor concentration is calculated and fit to the four parameter nonlinear logistic equation using Genedata Screener® to give an IC50 for the compound of Example 1 of 0.008 μM (±0.001 μM, n=5) and for the compound of Example 2 of 0.010 μM (±0.001 μM, n=4) expressed as GeoMetric means with the standard error of the mean (SEM).

TYK2 JH2 = biological target: T1, TYK2 JH2 (Homo sapiens, UniProt P29597); assay: Binding to TYK2 JH2 by Scintillation Proximity Assay; conditions: His-tagged TYK2 JH2, 3H-labelled ligand 50 nM, SPA; geometric mean (SEM); read-out: IC50, inhibition of radioligand binding to TYK2 JH2
T1 construct: The pseudokinase domain (JH2) of human JAK (Janus family of cytoplasmic tyrosine kinases) family tyrosine kinase 2 (TYK2); made in house
Description: The pseudokinase domain (JH2) of human JAK (Janus family of cytoplasmic tyrosine kinases) family tyrosine kinase 2 (TYK2) with an N-terminal His^6 tag is expressed in baculovirus and purified by Ni-NTA affinity and size-exclusion chromatography. Yttrium (YSi) His-Tag scintillation proximity assay (SPA) beads (cat #PRNQ0096) are purchased from PerkinElmer Life Sciences. ^3H—N-[(1R)-1-[3-[8-Methyl-5-(methylamino)-8H-imidazo[4,5-d]thiazolo[5,4-b]pyridin-2-yl]phenyl]ethyl]-2-(methylsulfonyl) benzamide is synthesized by Quotient Bio with a specific activity of 63 Ci/mmol and a concentration 6.78 μM stored in ethanol (cat #TRQ41678) (See also e.g., J. S. Tokarski, et al., J. Biol. Chem., vol. 290(17), pages 11061-11074 (2015) and R. Moslin, et al., Med. Chem. Commun., vol. 8, pages 700-712 (2017)).
A 3 fold, 10 point serial dilution of Example 1 is prepared in 100% DMSO (200 nL) and transferred to a 96 well, white, clear bottom, non-binding surface assay plate (Costar 3604) using acoustic liquid handling. Control wells used to determine percent inhibition contained either DMSO (200 nL) or cold, unlabeled inhibitor (200 nL, 10 mM, 200 μM final concentration). […] After 15 minutes at room temperature, radioactivity is counted using the Trilux Microbeta.

[2] = system: IL-23 signaling (STAT3 phosphorylation) in Kit225 cells; assay: IL23 pSTAT3 AlphaLISA assay; type: cell-based; conditions: 0.5 h, IL23 25 ng/ml for 30 minutes, geometric mean (SEM), read-out: relative IC50, IL23 pSTAT3
Description: IL2-dependent Kit225 cells expressing endogenous IL23 receptors are stably transduced with the Lenti STAT3 Reporter linked to firefly luciferase (SABiosciences CLS-6028L). These cells are used to monitor TYK2 activity by quantifying gene expression caused by STAT3 phosporylation following induction by IL23 in the presence of IL2 using AlphaLISA technology (TGR Biosciences ALSU-TST3-A50K). The cells are grown in RPMI 1640 (Gibco 22400) supplemented with 10% FBS (Invitrogen 10082), 1× Pen/Strep (Gibco 15140-122), 200 ng/ml Puromycin (Sigma P9620), and fresh 10 ng/ml recombinant human IL2 (R&D Systems 202-IL-50). For assay preparation, cells are dispensed into Biocoat black poly-d-lysine coated clear bottom 384-well plates (Becton Dickinson Bio-Coat 35-4640) in DMEM (Sigma D5796) at 300,000 cells/well and allowed to incubate overnight at 37° C. Compounds solubilized in DMSO are serially diluted 1:3 to produce a 10-point concentration response curve (final DMSO=0.1%). Cells are pre-incubated with Example 1 for 1 hour at 37° C., then stimulated with IL23 (25 ng/ml final) for 30 minutes. […] The AlphaLISA reaction is performed following the vendor's recommended protocol, and the luciferase levels are measured using an Envision plate reader (Perkin Elmer). […]

T1 sequence (P29597 589-875 limits assumed): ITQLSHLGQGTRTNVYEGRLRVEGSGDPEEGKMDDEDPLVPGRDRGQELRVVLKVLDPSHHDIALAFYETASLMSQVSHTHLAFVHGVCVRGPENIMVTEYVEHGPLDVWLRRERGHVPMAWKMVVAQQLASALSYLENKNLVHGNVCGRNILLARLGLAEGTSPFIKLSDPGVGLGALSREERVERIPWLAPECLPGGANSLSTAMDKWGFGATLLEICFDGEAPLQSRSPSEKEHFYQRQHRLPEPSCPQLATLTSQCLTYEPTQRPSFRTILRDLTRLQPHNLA

SMILES | IC50 [1] [nM] | IC50 (TYK2 JH2) [nM] | IC50 [2] [nM]
CCOc1ccccc1Nc1cc(NC)n2ncc(C(=O)N[C@@H]3CCN(C)C3=O)c2n1 (single isomer, unassigned) [Example 2] | 10 | 40 | 10
CNc1cc(Nc2ccccc2OC)nc2c(C(=O)N[C@@H]3CCN(C)C3=O)cnn12 [Example 1, 5-(2-Methoxyanilino)-7-(methylamino)-N-[(3R)-1-methyl-2-oxo-pyrrolidin-3-yl]pyrazolo[1,5-a]pyrimidine-3-carboxamide] | 8 | 45 | 9
